Structures can show the parent of a compound that is named as a salt. Marks after values point to notes of the source that are not given here.

Consider ten molecules from US20160303156A1 (priority 2014, published 2016).

Test [1] has as its system excretion of phenol red (secretory function of the respiratory tract). As to the kind of experiment: Effect on excretion of phenol red in mice. The class given is in vivo, Kunming mice. As to conditions: for Phenol red concentration: oral gavage 2 days, trachea wash 30 min after i.p. phenol red, n = 10. The protocol:
Kunming mice, female:male 1:1, weight 30-40 g, available from Guangdong Medical Laboratory Animal Center. […] Hitachi 3010 UV and visible spectrophotometer. […] After 30 min, the mice were sacrificed, and the trachea was detached. A section of the trachea from the thyroid cartilage to a branch of the trachea was excised, and placed in a test tube containing 3 ml of saline, to which 0.1 ml of a 15% sodium bicarbonate solution was then added. After centrifugation, the supernatant was taken and measured for the OD value at 546 nm. The phenol red content was calculated from a phenol red standard curve.

The test system of test [2] is inflammatory cells in bronchial alveolar lavage fluid. As to the kind of experiment: Differential leukocyte counts in bronchial alveolar lavage fluid, ovalbumin cough variant asthma model. The class given is in vivo, Hartley guinea pig. As to conditions: BALF. The protocol:
(§1) 2.2 Modeling: except for the normal control group, the guinea pigs in the remaining groups were challenged by intraperitoneally injecting cyclophosphamide at a dosage of 30 mg/kg at day 1, intraperitoneally injecting 1 mL of a suspension containing 2 mg ovalbumin and 100 mg aluminium hydroxide at day 3, and injecting 1 mL of a suspension containing 0.01 mg ovalbumin and 100 mg aluminium hydroxide after 3 weeks. The guinea pigs in the normal control group were intraperitoneally injected with 1 mL of saline. After 3 weeks, all the animals for modeling were challenged by nebulization of a 1% ovalbumin solution for 90 s, and the animals in the normal control group inhaled saline for 90 s by nebulization.
(§2) The cough of guinea pig were counted as follows. 1 hr after the last dose, the guinea pigs were placed in a Buxco cough recorder, and induced to cough by using 1 mL of 50 μmol/L capsaicin, and the cough counts in 10 min (including the nebulization time) were recorded.
2.5 Bronchoalveolar lavage and differential leukocyte counts in bronchial alveolar lavage fluid (BALF): After AR determination, the guinea pigs were anesthetized with 30 mg/kg of pentobarbital sodium. Then, the neck skin was cut, and a median incision was made on the trachea, in which a tracheal cannula was inserted. Bronchoalveolar lavage was performed with 5 mL of saline. This was repeated 3 times, and the bronchial alveolar lavage fluid was collected. All the bronchial alveolar lavage fluid was centrifuged at 4° C. and 1500 rpm for 10 min, and the supernatant was stored at −80° C. for later use.

Test [3] relates to ovalbumin induced atopic cough (cough variant asthma). As to the kind of experiment: Capsaicin induced cough in ovalbumin induced atopic cough (cough variant asthma) model. As to conditions: ovalbumin-challenged guinea pigs, 7 days dosing, 50 μmol/L capsaicin 1 hr after last dose, coughs in 10 min, n = 10. The class given is in vivo, Hartley guinea pig. The protocol:
as §1, §2

Test [4] concerns acemecholine (MeCh) induced airway hyperresponsiveness. As to the kind of experiment: Airway responsiveness (Penh) under MeCh challenge in ovalbumin cough variant asthma model. The format is in vivo, Hartley guinea pig. As to conditions: Penh % relative to normal saline challenge, n = 10. How it is done:
as §1, §2
2.4 Determination of airway responsiveness (AR) in guinea pig: 24 hrs after cough determination, the enhanced pause (Penh) of guinea pig was determined in the Buxco whole body plethysmograph, and the variation in Penh after challenge by nebulization of acemecholine (MeCh) was measured.
The acemecholine (MeCh) concentrations used for challenging were respectively, from low to high, 100 mg/L, 200 mg/L, 400 mg/L, 800 mg/L, and 1600 mg/L. The average Penh upon challenge with each level of MeCh was recorded, and converted into percentages (Penh %) relative to the Penh value upon challenge with normal saline (NS), which was used as an evaluation criterion for AR.

Test [5] deals with citric acid induced cough. As to the kind of experiment: Inhibition on citric acid induced cough in guinea pig. The format is in vivo, Hartley guinea pigs. How it is done: 1.1 Test animals: qualified Hartley guinea pigs, weight 250-300 g, female:male 1:1, available from Guangdong Medical Laboratory Animal Center.
1.3 Instrument: YLS-8A cough and asthma inducing instrument (a product available from Equipment Station of Shandong Academy of Medical Sciences).
The guinea pigs in each group were administered by oral gavage at a dosage of 0.5 ml/100 g of body weight, and equal volume of saline was given to the animals in the blank control group. 1 h after administration by oral gavage, the animals received spray of citric acid for 7 min. After the spray was completed, the cough counts were observed and recorded in ten minutes from the start of the spray (the typical cough is loud and clear and often accompanied by a forward rush).

Test [6] is described as follows: Effect of naringin in combination with other drugs. As to conditions: used in combination with naringin.

With `Nc1c(Br)cc(Br)cc1CN[C@H]1CC[C@H](O)CC1` [Ambroxol, ambroxol], the Phenol red concentration in test [1] is listed as 1.55 ± 0.46 ^ μg/ml.

Turning to `C[C@@H]1O[C@@H](O[C@H]2[C@H](Oc3cc(O)c4c(c3)O[C@H](c3ccc(O)cc3)CC4=O)O[C@H](CO)[C@@H](O)[C@@H]2O)[C@H](O)[C@H](O)[C@H]1O` [Naringin, naringin], in test [1], the “Effect on excretion of phenol red / sputum reducing effect (in words)” value is reported as “obviously enhance the excretion of phenol red”. Besides, the Phenol red concentration in test [1] is recorded as 1.64 ± 0.67 ^ μg/ml. Also, in test [2], the “Reduction of total leukocyte, lymphocyte, neutrophil and eosinophil counts (in words)” value is “significantly reduce”. Moreover, the Lymphocyte counts in test [2] (guinea pigs, n = 10) is reported as 21.5 ± 3.7** 10^7/L. Besides, in test [2] (guinea pigs, n = 10), the Neutrophil counts is 30.1 ± 6.5** 10^7/L. The Total leukocyte counts in test [2] (guinea pigs, n = 10) is listed as 135.5 ± 28.6** 10^7/L. For the same molecule, the Cough counts in test [3] is listed as 12.9 ± 4.3 ^. Moreover, the “Airway responsiveness under challenge with MeCh” value in test [4] (MeCh 100 mg/L) is reported as 276 ± 69; in test [4] (MeCh 200 mg/L), 783 ± 147; in test [4] (MeCh 400 mg/L) it was 857 ± 108; in test [4] (MeCh 800 mg/L) it was 1636 ± 169; in test [4] (MeCh 1600 mg/L) it was 2749 ± 253. Also, the “Cough relieving effect (in words)” value in test [5] (citric acid induced cough) was “obvious cough relieving effect”. The Cough count in test [5] (oral gavage, citric acid spray 7 min 1 h after dosing, coughs in ten minutes, n = 8) is given as 22.4 ± 3.7 ^.

Turning to `CN1CCCC(n2nc(Cc3ccc(Cl)cc3)c3ccccc3c2=O)CC1` (centres unmarked) [azelastine hydrochloride], the “Synergistic effect in combination with naringin” value (shortened to “Synergistic effect”) in test [6] was “no synergistic effect”.

In the case of `CN(C)CCC(c1ccc(Cl)cc1)c1ccccn1` (centres unmarked) [chlorpheniramine maleate], the “Synergistic effect” value in test [6] is “no synergistic effect”.

For the molecule `Clc1ccc2c(c1)CCc1cccnc1C2=C1CCNCC1` [desloratadine], the “Synergistic effect” value in test [6] was “no synergistic effect”.

Turning to `NC1=NCC2c3ccccc3Cc3ccccc3N12` (centres unmarked) [epinastine hydrochloride], the “Synergistic effect” value in test [6] is given as “no synergistic effect”.

As for `CCOC(=O)N1CCC(=C2c3ccc(Cl)cc3CCc3cccnc32)CC1` [loratadine], the “Synergistic effect” value in test [6] is listed as “no synergistic effect”.

Turning to `CN(c1nccc(=O)[nH]1)C1CCN(c2nc3ccccc3n2Cc2ccc(F)cc2)CC1` [mizolastine], the “Synergistic effect” value in test [6] is recorded as “no synergistic effect”.

Regarding dimenhydrinate hydrochloride, the “Synergistic effect” value in test [6] is “no synergistic effect”.

In the case of theohydramine hydrochloride, the “Synergistic effect” value in test [6] is listed as “no synergistic effect”.
